From patent publication US8846653B2, “Delta-tocotrienol treatment and prevention of pancreatic cancer” (University of South Florida, priority 2006, dated 2014)

Tested on: SW1990 pancreatic cancer cells
Assay: MTS assay of SW1990 cultures, single 50 μM dose
Format: cell-based, human
Settings: SW1990, 50 μM
Procedure: SW1990 pancreatic cancer cells […] were cultured in complete DMEM media containing 10% fetal bovine serum (FBS) and 1% penicillin-streptomycin, and 1% L-glutamine. BxPc-3 pancreatic cancer cells were cultured in complete RPMI media containing 10% fetal bovine serum (FBS), and 1% penicillin-streptomycin, 1% HEPES buffer, 1% sodium pyruvate and 1% L-glutamine. HPDE6-C7 cells were cultured in serum-free keratinocyte SFM media. All cells were maintained at 37° C. in a humidified incubator with 5% CO2. The cells were treated with a single 50 μM dose of vehicle (ethanol extracted olive oil), T3 alpha (alpha tocotrienol), T3 beta (beta tocotrienol), T3 gamma (gamma tocotrienol), T3 delta (delta tocotrienol), T alpha (alpha tocopherol), T beta (beta tocopherol), TS (tocopherol succinate), GG (geranylgeraniol), SA (succinic acid). A control culture (i.e., only vehicle with no treatment) was grown alongside the treatments for comparison. Cell viability was measured using MTS assay at preselect times of 24, 48, or 72 hours after treatment.

Structure (SMILES)	rel amnt (relative value set to the control) (24 hours)	MTS assay result, run 1 (24 hours)	MTS assay result, run 2 (24 hours)	MTS assay result, run 3 (24 hours)	MTS assay result, run 4 (24 hours)	MTS assay result, run 5 (24 hours)	MTS assay result, run 6 (24 hours)	MTS assay result, run 7 (24 hours)	MTS assay result, run 8 (24 hours)	MTS assay result, run 9 (24 hours)	rel amnt (relative value set to the control) (48 hours)	MTS assay result, run 1 (48 hours)	MTS assay result, run 2 (48 hours)	MTS assay result, run 3 (48 hours)	MTS assay result, run 4 (48 hours)	MTS assay result, run 5 (48 hours)	MTS assay result, run 6 (48 hours)	MTS assay result, run 7 (48 hours)	MTS assay result, run 8 (48 hours)	MTS assay result, run 9 (48 hours)	other results
CC(C)=CCC/C(C)=C/CC/C(C)=C/CC/C(C)=C/CO [GG, geranylgeraniol]	92	0.158	0.133	0.133	0.137	0.131	0.14	0.132	0.121	0.136	83	0.078	0.129	0.13	0.128	0.133	0.118	0.14	0.144	0.125	rel amnt (relative value set to the control) (72 hours): 158; MTS assay result, run 1 (72 hours): 0.784; MTS assay result, run 2 (72 hours): 0.713; MTS assay result, run 3 (72 hours): 0.76; MTS assay result, run 4 (72 hours): 0.734; MTS assay result, run 5 (72 hours): 0.682; MTS assay result, run 6 (72 hours): 0.665; MTS assay result, run 7 (72 hours): 0.65; MTS assay result, run 8 (72 hours): 0.627; MTS assay result, run 9 (72 hours): 0.702
O=C(O)CCC(=O)O [SA, succinic acid]	109	0.146	0.154	0.15	0.152	0.172	0.165	0.179	0.165	0.160	105	0.122	0.149	0.17	0.138	0.177	0.159	0.18	0.178	0.159	rel amnt (relative value set to the control) (72 hours): 113; MTS assay result, run 1 (72 hours): 0.596; MTS assay result, run 2 (72 hours): 0.547; MTS assay result, run 3 (72 hours): 0.57; MTS assay result, run 4 (72 hours): 0.515; MTS assay result, run 5 (72 hours): 0.544; MTS assay result, run 6 (72 hours): 0.44; MTS assay result, run 7 (72 hours): 0.4; MTS assay result, run 8 (72 hours): 0.427; MTS assay result, run 9 (72 hours): 0.504
Cc1c(O)cc2c(c1C)O[C@](C)(CCC[C@H](C)CCC[C@H](C)CCCC(C)C)CC2 [T gamma]	116	0.175	0.165	0.167	0.154	0.198	0.168	0.178	0.16	0.171	94	0.131	0.133	0.14	0.141	0.142	0.122	0.16	0.164	0.142	rel amnt (relative value set to the control) (72 hours): 108; MTS assay result, run 1 (72 hours): 0.5; MTS assay result, run 2 (72 hours): 0.497; MTS assay result, run 3 (72 hours): 0.46; MTS assay result, run 4 (72 hours): 0.505; MTS assay result, run 5 (72 hours): 0.515; MTS assay result, run 6 (72 hours): 0.469; MTS assay result, run 7 (72 hours): 0.43; MTS assay result, run 8 (72 hours): 0.451; MTS assay result, run 9 (72 hours): 0.478
Cc1c(C)c2c(c(C)c1OC(=O)CCC(=O)O)CC[C@@](C)(CCC[C@H](C)CCC[C@H](C)CCCC(C)C)O2 [TS, tocopherol succinate]	110	0.155	0.168	0.164	0.158	0.155	0.163	0.165	0.167	0.162	104	0.122	0.166	0.16	0.135	0.148	0.174	0.18	0.173	0.157	rel amnt (relative value set to the control) (72 hours): 207; MTS assay result, run 1 (72 hours): 0.998; MTS assay result, run 2 (72 hours): 0.962; MTS assay result, run 3 (72 hours): 1.02; MTS assay result, run 4 (72 hours): 0.887; MTS assay result, run 5 (72 hours): 0.936; MTS assay result, run 6 (72 hours): 0.897; MTS assay result, run 7 (72 hours): 0.85; MTS assay result, run 8 (72 hours): 0.801; MTS assay result, run 9 (72 hours): 0.918
